Read-outs that look alike come from different tables or passages of the source.
How the values were obtained:
Syk kinase = target: T1, Syk kinase (Homo sapiens, UniProt P43405); assay: Syk kinase biochemical fluorescence polarization assay; settings: read-out: fp_syk, 11 pt
T1 construct: purchased Upstate, Lake Placid N.Y
Procedure: Many of the 2,4-pyrimidinediamine compounds were tested for the ability to inhibit Syk kinase catalyzed phosphorylation of a peptide substrate in a biochemical fluorescenced polarization assay with isolated Syk kinase. In this experiment, Compounds were diluted to 1% DMSO in kinase buffer (20 mM HEPES, pH 7.4, 5 mM MgCl2, 2 mM MnCl2, 1 mM DTT, 0.1 mg/mL acetylated Bovine Gamma Globulin). Compound in 1% DMSO (0.2% DMSO final) was mixed with ATP/substrate solution at room temperature. Syk kinase (Upstate, Lake Placid N.Y.) was added to a final reaction volume of 20 uL, and the reaction was incubated for 30 minutes at room temperature. […] EDTA (10 mM final)/anti-phosphotyrosine antibody (1× final)/fluorescent phosphopeptide tracer (0.5× final) was added in FP Dilution Buffer to stop the reaction for a total volume of 40 uL according to manufacturer's instructions (PanVera Corporation) The plate was incubated for 30 minutes in the dark at room temperature. Plates were read on a Polarion fluorescence polarization plate reader (Tecan). Data were converted to amount of phosphopeptide present using a calibration curve generated by competition with the phosphopeptide competitor provided in the Tyrosine Kinase Assay Kit, Green (PanVera Corporation).

[1] = test system: cultured human mast cells (CHMC); assay: CHMC low cell density ionomycin activation: tryptase assay; type: cell-based; settings: Homo sapiens, Mast cell, low cell density CHMC, read-out: LD Tryptase, CHMC, Iono, 3 pt
[2] = test system: cultured human mast cells (CHMC); assay: CHMC low cell density IgE activation: tryptase assay; type: cell-based; settings: Homo sapiens, Mast cell, IgE activation
Method in brief: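 Tryptase release was read from supernatant with a fluorogenic substrate (30 min, room temperature) after anti-IgE challenge of cultured human mast cells (1000–1500 cells/well, low density) for 30 minutes at 37° C.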

[3] = low cell density CHMC, tryptase, 3 pt, read-out: LD Tryptase, CHMC, IgE, 3 pt
[4] = low cell density CHMC, tryptase, 8 pt, read-out: LD Tryptase, CHMC, IgE, 8 pt
[5] = low cell density CHMC, tryptase release, 3 pt, read-out: LD Tryptase, CHMC, IgE, 3 pt
[6] = low cell density CHMC, tryptase release, 8 pt, read-out: LD Tryptase, CHMC, IgE, 8 pt

Row | Compound | IC50 (Syk kinase; isolated Syk kinase, 11 pt) [µM] | IC50 [2, 3] [µM] | IC50 [2, 4] [µM] | further results
1 | Fc1cnc(Nc2cccc(-c3ncco3)c2)nc1Nc1cc(C2CC2)n[nH]1 [Compound 1144, N4-(3-Cyclopropyl-1H-pyrazol-5-yl)-5-fluoro-N2-[3-(oxazol-2-yl)phenyl]-2,4-pyrimidinediamine] | < 10 | < 10 | < 10 | IC50 ([1]; tryptase, 3 pt): > 10 µM
2 | CN1CCN(c2ccc(Nc3ncc(F)c(NC4CCCCC4)n3)cc2)CC1 [Compound 1164, N4-Cyclohexyl-5-fluoro-N2-[4-(4-methylpiperazino)phenyl]-2,4-pyrimidinediamine] | < 10 | < 10 |  | IC50 ([1]; tryptase, 3 pt): > 10 µM
3 | O=C(Nc1ccc(Nc2ncc(F)c(NC3CCCCC3)n2)cc1)c1ccccc1 [Compound 1174, N2-(4-Benzamidophenyl)-N4-cyclohexyl-5-fluoro-2,4-pyrimidinediamine] | < 10 | > 10 | < 10 | IC50 ([1]; tryptase, 3 pt): > 10 µM
4 | CN1CCN(c2ccc(Nc3ncc(F)c(N(C)C4CCC4)n3)cc2)CC1 [Compound 1147, N4-Cyclobutyl-5-fluoro-N4-methyl-N2-[4-(4-methylpiperazino)phenyl]-2,4-pyrimidinediamine] | < 10 | < 10 | < 10 | IC50 ([1]; tryptase, 3 pt): > 10 µM
5 | CNC(=O)COc1ccc(Nc2nc(Nc3ccc4ccn(CC(=O)NC)c4c3)ncc2F)cc1Cl [Compound 648, N4-[3-Chloro-4-(N-methylamino)carbonylmethyleneoxyphenyl]-5-fluoro-N2-[1-(N-methylamino)carbonylmethyleneindol-6-yl]-2,4-pyrimidinediamine] |  |  |  | IC50 (Syk kinase; isolated Syk kinase, 11 point): < 10 µM; IC50 ([1]; tryptase release, 3 point): > 10 µM; IC50 ([2]; low cell density CHMC, tryptase release, 3 point, read-out: LD Tryptase, CHMC, IgE, 3 pt): < 10 µM; IC50 ([2]; low cell density CHMC, tryptase release, 8 point, read-out: LD Tryptase, CHMC, IgE, 8 pt): < 10 µM
6 | CCN(CC)CCNC(=O)c1ccc(Nc2ncc(F)c(Nc3ccc(OCc4nc(C)no4)cc3)n2)cc1 [Compound 1343, N2-(4-[2-[N,N-Diethylamino]ethyleneaminocarbonyl]phenyl)-5-fluoro-N4-(4-[3-methyl-1,2,4-oxadiazol-5-yl]methyleneoxyphenyl)-2,4-pyrimidinediamine] | < 10 | < 10 | < 10 | 
7 | COc1ccc(Nc2nc(Nc3ccc4c(c3)c(N)nn4C)ncc2F)cc1Cl [Compound 804, N2-(3-Amino-1-methylindazol-5-yl)-N4-(3-chloro-4-methoxyphenyl)-5-fluoro-2,4-pyrimidinediamine] | < 10 |  |  | IC50 [2, 6]: < 10 µM
8 | Cc1noc(COc2ccc(Nc3nc(Nc4ccc(C(N)=O)cc4)ncc3F)cc2)n1 [Compound 1341, N2-(4-Aminocarbonylphenyl)-5-fluoro-N4-(4-[3-methyl-1,2,4-oxadiazol-5-yl]methyleneoxyphenyl)-2,4-pyrimidinediamine] | < 10 | < 10 | < 10 | 
9 | Fc1cnc(Nc2ccc3[nH]c(N4CCOCC4)nc3c2)nc1Nc1ccc(Cl)c(Cl)c1 [Compound 975, N4-(3,4-Dichlorophenyl)-5-fluoro-N2-[2-(4-morpholino)-1H-benzimidazol-5-yl]-2,4-pyrimidinediamine] |  |  |  | IC50 (Syk kinase; 11 pt): < 10 µM; IC50 ([2]; low cell density, 8 pt, read-out: LD Tryptase, CHMC, IgE, 8 pt): < 10 µM
10 | CN1CCN(c2ccc(Nc3ncc(F)c(NC4CCCCC4)n3)cc2Cl)CC1 [Compound 1191, N2-[3-Chloro-4-(4-methylpiperazino)phenyl]-N4-cyclohexyl-5-fluoro-2,4-pyrimidinediamine] | < 10 | < 10 |  | 
11 | Nc1nc(Nc2nc(Nc3ccc4cn[nH]c4c3)ncc2F)n[nH]1 [Compound 1255] | < 10 |  | < 10 | 
12 | COc1ccc(Nc2nc(Nc3ccc4c(c3)nc(N3CCOCC3)n4C)ncc2F)cc1Cl [Compound 943, N4-(3-Chloro-4-methoxyphenyl)-5-fluoro-N2-[1-methyl-2-(4-morpholino)benzimidazol-5-yl]-2,4-pyrimidinediamine] |  |  |  | IC50 (Syk kinase; 11 pt): < 10 µM; IC50 ([2]; low cell density, 3 pt, read-out: LD Tryptase, CHMC, IgE, 3 pt): < 10 µM

Second part, led by results:

Row | IC50 (Syk kinase; isolated Syk kinase, 11 pt) [µM] | IC50 [2, 3] [µM] | IC50 [2, 4] [µM] | Compound | further results
13 | < 10 |  |  | COc1ccc(Nc2nc(Nc3ccc4nc(C)[nH]c4c3)ncc2F)cc1Cl [Compound 808, N4-(3-Chloro-4-methoxyphenyl)-5-fluoro-N2-(2-methyl-3H-benzimidazol-5-yl)-2,4-pyrimidinediamine] | IC50 ([1]; tryptase release, 3 pt): > 10 µM; IC50 [2, 5]: < 10 µM; IC50 [2, 6]: < 10 µM
14 | < 10 | < 10 | < 10 | COc1cc(Nc2nc(Nc3cc(C)cc(C)c3)ncc2F)cc(OC)c1 [Compound 350] | IC50 ([1]; tryptase, 3 pt): > 10 µM
15 | < 10 |  |  | COc1c(C)cc(Nc2ncc(F)c(Nc3cccc(NC4=NCCN4)c3)n2)cc1C [Compound 1093] | IC50 ([1]; tryptase readout, 3 pt): > 10 µM; IC50 ([2]; low cell density CHMC, tryptase readout, 3 pt, read-out: LD Tryptase, CHMC, IgE, 3 pt): < 10 µM; IC50 ([2]; low cell density CHMC, tryptase readout, 8 pt, read-out: LD Tryptase, CHMC, IgE, 8 pt): < 10 µM
16 | < 10 |  |  | COCCCn1ncc2cc(Nc3ncc(F)c(Nc4ccc(OC)c(Cl)c4)n3)ccc21 [Compound 792, N4-(3-Chloro-4-methoxyphenyl)-5-fluoro-N2-[1-(3-methoxypropyl)indazol-5-yl]-2,4-pyrimidinediamine] | IC50 ([1]; tryptase release, 3 pt): > 10 µM; IC50 [2, 5]: < 10 µM; IC50 [2, 6]: < 10 µM
17 | < 10 | < 10 | < 10 | COc1ccc(Nc2nc(Nc3cccc(-c4ncco4)c3)ncc2F)cc1OC [Compound 423, N4-(3,4-Dimethoxyphenyl)-5-fluoro-N2-[3-(oxazol-2-yl)phenyl]-2,4-pyrimidinediamine] | IC50 ([1]; tryptase, 3 pt): > 10 µM
18 | < 10 | < 10 |  | CNC(=O)c1cc2cccc(Nc3ncc(F)c(Nc4cc(OC)cc(OC)c4)n3)c2[nH]1 [Compound 368, N4-(3,5-Dimethoxyphenyl)-5-fluoro-N2-[2-(N-methylamino)carbonylindol-7-yl]-2,4-pyrimidinediamine] | 
19 | < 10 |  |  | COc1ccc(Nc2nc(Nc3ccc4[nH]c(C(F)(F)F)nc4c3)ncc2F)cc1Cl [Compound 800, N4-(3-Chloro-4-methoxyphenyl)-5-fluoro-N2-(2-trifluoromethyl-1H-benzimidazol-5-yl)-2,4-pyrimidinediamine] | IC50 ([1]; tryptase release, 3 pt): < 10 µM; IC50 [2, 5]: < 10 µM; IC50 [2, 6]: < 10 µM
20 | < 10 | < 10 | < 10 | CC1(C)Oc2ccc(Nc3ncc(F)c(Nc4ccc(C(N)=O)cc4)n3)cc2NC1=O [Compound 1337] | 
21 | < 10 |  | < 10 | COc1ccc(Nc2nc(Nc3ccc(C(N)=O)cc3)ncc2F)cc1Cl [Compound 1321, N2-(4-Aminocarbonylphenyl)-N4-(3-chloro-4-methoxyphenyl)-5-fluoro-2,4-pyrimidinediamine] | 
22 | < 10 | > 10 |  | COc1cc(Cl)cc(Nc2ncc(F)c(Nc3ccc(OCc4nc(C)no4)cc3)n2)c1 [Compound 1345, N2-(3-Chloro-5-methoxyphenyl)-5-fluoro-N4-(4-[3-methyl-1,2,4-oxadiazol-5-yl]methyleneoxyphenyl)-2,4-pyrimidinediamine] | 
23 | < 10 | < 10 | < 10 | COc1cc(Nc2nc(Nc3cccc4cc(C(=O)N(C)CCO)[nH]c34)ncc2F)cc(OC)c1 [Compound 384] | 
24 | < 10 |  |  | COc1ccc(Nc2nc(Nc3ccc4c(cnn4CCCNC(C)=O)c3)ncc2F)cc1Cl [Compound 819, N2-[1-[3-(N-Acetylamino)propyl]indazol-5-yl]-N4-(3-chloro-4-methoxyphenyl)-5-fluoro-2,4-pyrimidinediamine] | IC50 [2, 6]: < 10 µM

Source: patent US20220073536A1 (Rigel Pharmaceuticals, Inc., priority 2003, published 2022)
